These results are taken from ChEMBL document CHEMBL1250439, “2-phenyl-1-[4-(2-piperidine-1-yl-ethoxy)benzyl]-1H-benzimidazoles as ligands for the estrogen receptor: synthesis and pharmacological evaluation” (Bioorg Med Chem, 2010).

As a reminder, the T/C is the result in the treated group divided by that in the control group, in per cent. As usually defined, the IC50 is the concentration that inhibits the measured activity by half. The low end stands for greater potency in that assay, the high end for weaker potency in that assay. One may read the ΔTm as the change in melting temperature against a reference sample. What is called Ki is a measure of affinity in units of concentration, obtained from inhibition or displacement. Low readings indicate tighter binding, high ones weaker binding.

Activity calls are given as the source filed them. The rule behind the calls is not given here.

For one assay, the system named is MDA-MB-231. Description: Cytostatic activity against human MDA-MB-231 cells after 3 days by microtiter assay. Format: functional, cell-based.
Assay [1] relates to MCF7. Nature of the assay: Cytostatic activity against human MCF7 cells at 10 uM after 3 days by microtiter assay. The class given is functional.
The subject of assay [2] is MCF7. Nature of the assay: Cytostatic activity against human MCF7 cells at 5 uM after 3 days by microtiter assay. The class given is functional.
The target in assay [3] is T1, Estrogen receptor (Homo sapiens, UniProt P03372).
T1 sequence (P03372 whole entry): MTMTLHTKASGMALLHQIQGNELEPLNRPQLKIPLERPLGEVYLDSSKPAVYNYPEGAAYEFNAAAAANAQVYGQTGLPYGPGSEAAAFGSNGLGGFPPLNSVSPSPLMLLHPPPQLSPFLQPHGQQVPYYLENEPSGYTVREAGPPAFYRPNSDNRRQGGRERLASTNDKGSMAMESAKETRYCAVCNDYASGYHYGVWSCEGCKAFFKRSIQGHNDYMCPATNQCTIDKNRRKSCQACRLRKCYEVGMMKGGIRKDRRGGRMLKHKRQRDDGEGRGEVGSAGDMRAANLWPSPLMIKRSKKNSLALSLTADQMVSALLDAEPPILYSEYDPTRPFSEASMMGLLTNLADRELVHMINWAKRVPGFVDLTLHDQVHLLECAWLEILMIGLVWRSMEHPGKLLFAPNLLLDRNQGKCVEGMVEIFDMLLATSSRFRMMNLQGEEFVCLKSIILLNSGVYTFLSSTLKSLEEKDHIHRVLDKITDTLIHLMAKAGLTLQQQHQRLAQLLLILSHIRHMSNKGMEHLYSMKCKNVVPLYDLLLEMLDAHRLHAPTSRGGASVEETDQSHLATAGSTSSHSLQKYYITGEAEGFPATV
Description: Antagonist activity at human ERalpha expressed in human MCF7 cells at 10 uM by luciferase reporter gene assay. The class given is functional, cell-based. Background: Reporter assays use an easily measured gene product as a stand-in for the process of interest.

The test system of assay [4] is MCF7. Nature of the assay: Cytostatic activity against human MCF7 cells at 1 uM after 3 days by microtiter assay. Format: functional.
The subject of the next assay is Calf thymus DNA. Nature of the assay: Binding affinity to calf thymus DNA assessed as change in melting temperature. Format: nucleic-acid assay. To be noted: Bos taurus.
For a further assay, the target named is T2, Adenosine receptor A1 (Rattus norvegicus, UniProt P25099).
T2 sequence (P25099 whole entry): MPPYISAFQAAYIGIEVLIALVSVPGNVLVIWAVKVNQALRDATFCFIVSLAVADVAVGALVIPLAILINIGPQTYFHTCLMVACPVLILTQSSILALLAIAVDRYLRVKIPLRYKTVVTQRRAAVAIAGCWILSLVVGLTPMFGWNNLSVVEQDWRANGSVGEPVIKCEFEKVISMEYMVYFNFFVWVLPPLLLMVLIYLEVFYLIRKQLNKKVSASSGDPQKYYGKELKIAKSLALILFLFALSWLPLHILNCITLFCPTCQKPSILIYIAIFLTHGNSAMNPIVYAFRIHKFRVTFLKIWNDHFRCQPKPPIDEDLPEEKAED
Nature of the assay: Displacement of [3H]CCPA from adenosine A1 receptor in rat brain cortical membrane. The class given is cell membranes. Background: In a radioligand displacement assay an active substance lowers the binding of a labelled ligand.

In assay [5] the target is T1, Estrogen receptor. Description: Antagonist activity at human ERalpha expressed in human MCF7 cells by luciferase reporter gene assay. Format: functional, cell-based.
The target of assay [6] is Estrogen receptor beta (Homo sapiens) (UniProt Q92731). Nature of the assay: Displacement of [3H]E2 from human estrogen receptor beta relative to control.
Estrogen receptor beta (Homo sapiens), sequence (Q92731 whole entry): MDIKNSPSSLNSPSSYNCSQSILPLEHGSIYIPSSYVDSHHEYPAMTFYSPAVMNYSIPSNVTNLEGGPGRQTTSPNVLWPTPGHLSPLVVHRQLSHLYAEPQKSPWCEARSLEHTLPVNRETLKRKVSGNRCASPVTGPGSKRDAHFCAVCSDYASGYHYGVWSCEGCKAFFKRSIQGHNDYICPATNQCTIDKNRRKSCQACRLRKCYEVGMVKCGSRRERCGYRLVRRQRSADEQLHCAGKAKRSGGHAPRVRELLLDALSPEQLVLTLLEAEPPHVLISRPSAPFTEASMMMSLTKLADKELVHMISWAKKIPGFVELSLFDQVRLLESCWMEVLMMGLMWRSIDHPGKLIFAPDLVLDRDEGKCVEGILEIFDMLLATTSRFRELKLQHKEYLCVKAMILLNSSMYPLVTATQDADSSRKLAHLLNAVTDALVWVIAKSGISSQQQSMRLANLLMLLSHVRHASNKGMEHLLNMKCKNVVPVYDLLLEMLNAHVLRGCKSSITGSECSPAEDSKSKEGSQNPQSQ
The target of assay [7] is T3, Estrogen receptor (Homo sapiens) (UniProt P03372).
T3 sequence (whole entry): T1 sequence (P03372 whole entry)
Nature of the assay: Displacement of [3H]E2 from human estrogen receptor alpha relative to control.

As to `CC/C(=C(\c1ccccc1)c1ccc(OCCN(C)C)cc1)c1ccccc1` [TAMOXIFEN], the result in the assay with MDA-MB-231 was Active. Also, the result in the assay with MCF7 [1] was inactive. Also, the T/C with MCF7 [2] amounted to 0%.
Take `Oc1ccc(-c2nc3ccccc3n2Cc2ccc(OCCN3CCCCC3)cc2)cc1`: it took 5.1 µM to reach half-maximal inhibition against Estrogen receptor [3] (IC50). The T/C in the assay on MCF7 [1] is below 0%; in the assay on MCF7 [4] it was 50%; in the assay with MCF7 [2], 0%. The shift in melting temperature (ΔTm) in the assay with Calf thymus DNA was 3 °C.
Molecule `Oc1ccc(-c2nc3cc(O)ccc3n2Cc2ccc(OCCN3CCCCC3)cc2)cc1` yielded a Ki on Adenosine receptor A1 of 3.7 µM. Also, the ΔTm in the assay on Calf thymus DNA was found to be 3 °C.
Take `Oc1ccc2nc(-c3ccccc3)n(Cc3ccc(OCCN4CCCCC4)cc3)c2c1`: the T/C is recorded as below 0% with MCF7 [1], 50% in the assay with MCF7 [4] and 0% with MCF7 [2]. At Estrogen receptor [5], 0.31 µM corresponded to half-maximal inhibition (IC50). Also, in the assay on Calf thymus DNA, the shift in melting temperature (ΔTm) amounted to 3 °C.
`Oc1ccc2c(c1)nc(-c1ccccc1)n2Cc1ccc(OCCN2CCCCC2)cc1`: the RBA in assay [6] amounted to 0.54%; in [7] it was 0.43%. Moreover, the T/C with MCF7 [1] is recorded as below 0%; with MCF7 [4], 50%; in the assay on MCF7 [2], 0%. In addition, the shift in melting temperature (ΔTm) with Calf thymus DNA is 3 °C.
As for `O=C(c1ccc(OCCN2CCCCC2)cc1)c1c(-c2ccc(O)cc2)sc2cc(O)ccc12` [RALOXIFENE], the result in the assay on MDA-MB-231 was Active. In addition, the result in the assay with MCF7 [1] was inactive. The molecule further showed a T/C with MCF7 [2] of 0%.
With `CCC(=C(c1ccc(O)cc1)c1ccc(OCCN(C)C)cc1)c1ccccc1`, in the assay with MDA-MB-231, the result was Active. Also, the outcome in the assay on MCF7 [1] was inactive. In the assay with MCF7 [2], this molecule showed a T/C of 0%.
On to `Oc1ccc(-c2nc3ccc(O)cc3n2Cc2ccc(OCCN3CCCCC3)cc2)cc1`, for which the inhibition constant (Ki) on Adenosine receptor A1 was at most 3.7 µM. In the assay on Calf thymus DNA, the shift in melting temperature (ΔTm) worked out at 3 °C.
